Results on one compound are retold here after patent US20050123479A1, “Therapeutic properties of oils” (priority 2002, published 2005).

The subject of the assay is human T lymphocytes. As to the kind of experiment: PHA-induced lymphocyte proliferation (3H-TdR incorporation). The class given is cell-based. As to conditions: compared with 18:1ω9, 18:0 and 18:2; preliminary studies (FIG. 24). How it is done:
Lymphocyte proliferation was measured by a semi-automated microtechnique (12). Human mononuclear cells (2×10^5) were seeded into u-bottomed wells of a micro-titre plate (50 μl) and treated with 500 of the ethanol emu oil fraction. After 30 min incubation, […] PHA was added to stimulate the T lymphocytes. The cells were incubated for 72 h at 37° C. in an atmosphere of 5% CO2-air and high humidity. At 6 h prior to harvest, the cultures were pulsed with 1 μCi of ^3H-TdR. The cells were harvested and the amount of radioactivity incorporated measured in a liquid scintillation counter.
Makin emu oil was subjected to solubility in ethanol. This ethanol soluble oil fraction was then tested for ability to depress proliferation of mitogen stimulated human lymphocytes. The mononuclear cells were isolated from peripheral blood and pretreated for 30 min with dilutions of the fraction and then challenged with phytohaemagglutinin (PHA). Proliferation of lymphocytes was measured after 48 hours using ^3H-TdR incorporation as a marker for DNA synthesis.

With `CCCCC/C=C\C/C=C\CCCCCCCC(=O)O` [18:2ω6, Linoleic acid (18:2ω6)], the “inhibition of T lymphocyte and mononuclear cell responses by fatty acids” value was “strongly inhibitory”.
